pIC50: −log10 of the molar value. Values after ≈ are worked out from the molar mass of the structure shown.
Tests used:
[1] = Distribution coefficient (Log D) value at pH 6.5; format: physicochemical; details: octanol/water, read-out: LogD6.5
[2] = Distribution coefficent (Log D) value at pH 7.4; format: physicochemical; details: read-out: LogD7.4
[3] = Solubility at pH 6.5; format: physicochemical; details: buffer
[4] = Solubility at pH 7.4; format: physicochemical; details: buffer
Homo sapiens [5] = species: Homo sapiens; experiment: Compound was tested in vitro for inhibition of human mixed lymphocyte proliferation (HuMLR); format: functional
Rattus norvegicus [6] = experiment: Compound was tested in vivo for immunosuppressive activity using rat popliteal lymph node (rPLN) hyperplasia assay; format: functional
Homo sapiens [7] = species: Homo sapiens; experiment: Compound was tested in vitro for inhibitory activity against human FKBP; format: functional
Rattus norvegicus [8] = experiment: Compound was tested in vivo for immunosuppressive activity using rat popliteal lymph node (rPLN) hyperplasia assay at 3 mg/kg; format: functional
[9] = Compound was tested in vitro for inhibitory activity against human FK506 binding protein

SMILES | logD [1] | logD [2] | solubility ([3]; read-out: Solubility) | solubility [4] | pIC50 (Homo sapiens [5]) | ED50 (Rattus norvegicus [6]) | pIC50 (Homo sapiens [7]) | inhibition in vivo at 3 mg/kg (Rattus norvegicus [8]) | solubility [3] | pIC50 [9]
CC[C@@H]1/C=C(\C)C[C@H](C)C[C@H](OC)[C@H]2O[C@@](O)(C(=O)C(=O)N3CCCC[C@H]3C(=O)O[C@H](/C(C)=C/[C@@H]3C[C@@H](O)[C@@H](O)[C@H](OC)C3)[C@H](C)[C@@H](O)CC1=O)[C@H](C)C[C@@H]2OC | 3.6 | 3.4 | 464 µg/mL (≈ 574 µM) | 455 µg/mL (≈ 563 µM) | 9.77 | 0.72 mg/kg | 8.92 | – | – | –
CC[C@@H]1/C=C(\C)C[C@H](C)C[C@H](OC)[C@H]2O[C@@](O)(C(=O)C(=O)N3CCCC[C@H]3C(=O)O[C@H](/C(C)=C/[C@@H]3CC[C@@H](OC)[C@H](O)C3O)[C@H](C)[C@@H](O)CC1=O)[C@H](C)C[C@@H]2OC (stereo partly drawn) | 3.9 | 3.9 | 294 µg/mL (≈ 364 µM) | 245 µg/mL (≈ 303 µM) | 9.14 | – | 7.41 | 36% | – | –
CC[C@@H]1/C=C(\C)C[C@H](C)C[C@H](OC)[C@H]2O[C@@](O)(C(=O)C(=O)N3CCCC[C@H]3C(=O)O[C@H](/C(C)=C/[C@@H]3CC[C@@H](O)[C@H](OC)C3)[C@H](C)[C@@H](O)CC1=O)[C@H](C)C[C@@H]2OC [ASCOMYCIN] | 3.98 | 4.22 | – | 4.2 µg/mL (≈ 5.3 µM) | 9.60 | 0.31 mg/kg | 8.69 | – | 1.6 µg/mL (≈ 2.02 µM) | –
C=CC[C@@H]1/C=C(\C)C[C@H](C)C[C@H](OC)[C@H]2O[C@@](O)(C(=O)C(=O)N3CCCC[C@H]3C(=O)O[C@H](/C(C)=C/[C@@H]3CC[C@@H](O)[C@H](OC)C3)[C@H](C)[C@@H](O)CC1=O)[C@H](C)C[C@@H]2OC [TACROLIMUS ANHYDROUS] | 4.36 | 4.38 | 1 µg/mL (≈ 1.24 µM) | 5.2 µg/mL (≈ 6.47 µM) | 9.43 | 0.15 mg/kg | – | – | – | 8.60
